Assay results taken from US20080089860A1, “Therapeutic compositions and methods useful in treating cancer” (priority 2006, published 2008).
Entries after “also recorded” stand apart in the source; their conditions may differ.

Columns and labels:
U266 cells = assay: U266 multiple myeloma cell growth, MTT assay; format: cell-based, human; conditions: day 6
Experimental: (§1) For cell proliferation assays, cells were grown in 10% FCS culture medium containing various amounts of IFNs and/or sodium stibogluconate in 96 well plates and cultured at 37° C. for 3 or 6 days as indicated. The numbers of viable cells in proliferation assays were determined by MTT assays as described in Phatak et al., J. Immunol. 167, 3391 (2001).

NB4 cells = assay: NB4 differentiation (NBT reduction, CD11b); format: cell-based, human; conditions: 6 days with drug (10 or 100 μg/ml), washed, 6 days without
Experimental: Differentiation of AML cell lines was assessed by their ability to produce superoxide as measured by reduction of NBT to formazan and by analysis of expression of CD11b surface marker by flow cytometry. For NBT reduction, each cell suspension was mixed with an equal volume of solution containing 1 mg/ml of NBT (Sigma) and 2.5 µg/ml of TPA for 30 minutes at 37° C. After incubation, cells containing the purple formazan deposits and cells devoid of NBT-reducing activity (white cells) in each sample were determined by counting 200 cells under microscope. Data is expressed as a percentage based on the following ratio: purple cells/purple+white cells. For analysis of cell surface antigens, cells were exposed to phycoerythrin (PE)-conjugated murine anti-human CD11b (DAKO Corp., Carpinteria, Calif.). Analysis of fluorescence was performed on a FACScan flow cytometer (Beckton Dickinson, Mountain View, Calif.).

Renca tumors = Renca tumors in Balb/c mice; format: in vivo; conditions: end of treatment
Experimental: Balb/c and athymic nude Balb/c mice (10 weeks old, female, Taconic Farms, Germantown, N.Y.) were inoculated (s.c.) at the flanks with Renca cells (10^6 cells/site). […] Student's t test was used for assessing the significance of tumor volume differences among differential treatment groups. Mouse viability (daily) and body weights (weekly) were also recorded during the study period. At the end of the study, Renca tumors and major internal organs (heart, kidney, liver, lung and spleen) were harvested for histology and immunohistochemistry analysis.

[1] = tested on: tumor-infiltrating and spleen macrophages (F4/80+), T and NK cells; assay: Immunohistochemistry of Renca tumors and spleen, Balb/c mice; conditions: mouse, in vivo
Experimental: Major internal organs and Renca tumors harvested from mice were fixed in 10% formalin or snap frozen in liquid nitrogen. H & E-stained tissue sections of the fixed samples were prepared and evaluated by microscopy as described previously (Yi, T., M. K. Pathak, D. J. Lindner, M. E. Ketterer, C. Farver, and E. C. Borden. 2002. Anticancer activity of sodium stibogluconate in synergy with IFNs. J Immunol 169:5978). Preparation of frozen tissue sections and immunohistochemistry were performed following established procedures (Joliat, M. J., P. A. Lang, B. L. Lyons, L. Burzenski, M. A. Lynes, T. Yi, J. P. Sundberg, and L. D.
The sections were counterstained with Mayer's hematoxylin prior to microscopic examination. Tissue sections of 2 mice/group were evaluated. The number of immune cells was semi-quantified based on the following scheme: +, 0-1 positive cells/40×field; +, 2-5 positive cells/40×field; ++, 6-10 positive cells/40×field, etc.

TF-1 cells = assay: TF-1 cell proliferation assay; format: cell-based, human
Experimental: (§2) The murine hematopoietic cell line Baf3 was maintained in RPMI 1640 medium supplemented with 10% fetal calf serum (FCS) and murine IL-3 (20 units/ml) as described previously in Damen et al., J. Biol. Chem. 270, 23402 (1995). Human myeloid cell line TF-1 was maintained in RPMI 1640 supplemented with 10% FCS and 40 ng/ml of recombinant human GM-CSF as described previously in Thomassen et al., Clin. Immunol. 95, 85 (2000). For cell proliferation assays, cells were washed in 10% FCS medium twice, resuspended in 10% FCS medium, incubated at 37° C. for 16 hours, and then cultured at 37° C. in 10% FCS medium containing various amounts of cytokines, sodium stibogluconate, or potassium antimonyl tartrate for 3-6 days as indicated. The cell numbers in proliferation assays were determined by an MTT assay or by microscopic cell counting as indicated.

MDA231 cells = assay: MDA231 breast cancer cell growth, MTT assay; format: cell-based, human; conditions: single agent, 50 μg/ml and 100 μg/ml
Experimental: as §1

DU145 tumors = DU145 tumors in athymic nude mice, sodium stibogluconate alone; conditions: mouse, in vivo
Experimental: Athymic nude mice (nu/nu, NCR), 4 weeks old (Taconic), were inoculated (s.c.) in the flanks with DU145 cells (3×10^6 cells/site) on day 0, Starting on day 2, the mice were subjected to no treatment (Control) or treatment with sodium stibogluconate (12 mg, […], daily, i.m., at the hip area). The dosage of sodium stibogluconate used in the study was similar to the effective daily dose of sodium stibogluconate for the treatment of murine leishmaniasis (Murray, et al. 1988). Tumor volume was measured and calculated using the formula for a prolate spheroid (V=4/3 7 a^2b) (Lindner, et al. 1997). Hematoxylin+Eosin (H.E.) stained tissue sections of internal organs and tumor inoculation sites tissues of the mice were prepared and subjected microscopic evaluation.
Nude mice were inoculated with DU145 cells sub-cutaneously at the shoulder area. Two days after inoculation when tumors were visible, the mice were subjected to no treatment (control) or sodium stibogluconate treatment (daily injection of 440 mg/kg, intermuscular at the hip area). […] Histology of their major organs was unremarkable.

intracellular Flag-PRL-3 = biological target: T1, intracellular Flag-PRL-3 (Homo sapiens, UniProt O75365); assay: Immunocomplex PTPase assay, Flag-PRL-3 NIH3T3 transfectants; format: cell-based; conditions: cells treated 5 min
T1 construct: expressed in transfected cells; host or cells: NIH3T3 (pBabepuro, puromycin-selected)
Experimental: Immunocomplex PTPase assays were performed to assess the effects of sodium stibogluconate on intracellular PTPases. Cells were untreated or treated with sodium stibogluconate for 5 minutes, washed with fresh medium and then lysed in cold lysis buffer (50 mM Tris, pH 7.4; 150 mM NaCl; 1% NP40; 2 mM PMSF; 20 μg/ml of Aprotinin). The lysates were incubated with an anti-Flag antibody in immunoprecipitation assays. The immunocomplexes were collected with protein G sepharose beads (Pharmacia) and washed in cold lysis buffer for 4 times. […] C. for 18 hrs. 100 µL of malachite green solution (UBI) was added to each reaction prior to measurement of OD660 to quantify the amounts of free phosphate cleaved by the PTPases from the peptide substrate (Pathak et al., J. Imumol. 167, 3391 (2001)). The remaining 10% contents of individual samples were analyzed by SDS-PAGE/Western blotting to quantify the relative amounts of the phosphatase proteins. […]
The effects of sodium stibogluconate on intracellular PTPases were assessed using NIH3T3 or WM9 transfectants. […]

Baf3 cells = assay: Baf3 cell proliferation assay; format: cell-based, murine
Experimental: as §2

WiT49-N1 cells = assay: WiT49-N1 Wilms tumor cell growth, MTT assay; format: cell-based, human; conditions: day 6 culture; killing at 100 μg/ml
Experimental: as §1

T1 sequence (O75365 whole entry): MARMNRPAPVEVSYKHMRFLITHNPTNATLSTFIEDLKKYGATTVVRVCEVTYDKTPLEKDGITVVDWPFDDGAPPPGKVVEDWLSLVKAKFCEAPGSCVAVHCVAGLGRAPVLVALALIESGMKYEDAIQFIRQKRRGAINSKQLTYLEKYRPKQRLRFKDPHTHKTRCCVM

O.O.O.O.O.O.O.O.O.O=C([O-])[C@@H]1[O][Sb]2([O-])([O][Sb]34([OH])[O][C@H]([C@H](O)CO)[C@H]([O]3)[C@H](C(=O)[O-])[O]4)[O][C@H]([C@H](O)CO)[C@@H]1[O]2.[Na+].[Na+].[Na+] [sodium stibogluconate]
growth inhibition of U266 cells by the drug by itself (U266 cells): substantial growth inhibition activity
reversal of NB4 differentiation after drug removal (NB4 cells): not reversed
tolerability of treatment (Renca tumors): tolerated well
numbers of tumor-infiltrating T cells or NK cells [1]: little effect
GM-CSF-induced proliferation of TF-1 cells (TF-1 cells; 50 μg/ml, GM-CSF 5-40 ng/ml): augmented
effect on GM-CSF-induced cell growth (TF-1 cells; low doses 12.5-50 μg/ml): no negative effect
MDA231 cells in day 6 culture (MDA231 cells): killed all cells; also recorded: complete or near complete killing
histology of major organs (DU145 tumors): unremarkable
survival of mice (DU145 tumors): survived until the end of the study
PTPase activity of immunocomplexes from treated Flag-PRL-3 transfectants (intracellular Flag-PRL-3): lack of PTPase activity
IL-3-induced Baf3 growth (Baf3 cells; 1,000 μg/ml): suppressed
cell proliferation and viability in the absence of IL-3 (Baf3 cells; day 3 culture): failed to support cell proliferation or maintain cell viability
sensitivity of WiT49-N1 cells (WiT49-N1 cells): sensitive; also recorded: complete or near complete killing
